For 13 molecules, GI50 and TGI results are on record in PubChem BioAssay (NCI).

SMILES strings stand for the structures. Values joined by “and” are separate entries in the source; they are usually repeats but may differ in a detail not shown here. Identical values can stand only once.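 Five concentrations, 48 hours, 96-well plates. Here, GI50 denotes the concentration required for 50% inhibition of growth. Definition used: TGI = concentration required for complete inhibition of growth.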

What all share (assay): NCI-60 cell line screen, 48 h
Experiment [1] deals with A498 renal.
For experiment [2], the system named is BT-549 breast.
Experiment [3] concerns EKVX NSCLC.
For experiment [4], the system named is HCC-2998 colon.
Experiment [5] relates to HCT-116 colon.
The test system of experiment [6] is HL-60(TB) leukemia.
Experiment [7] relates to MCF7 breast.
Experiment [8] concerns RPMI-8226 leukemia.
Experiment [9] deals with SK-MEL-28 melanoma.
In experiment [10] the test system is UO-31 renal.

As to `CC(C)=CCC/C(C)=C/[C@H]1OC(=O)CC12C[C@H](O)C=CC2=O` (stereo partly specified), the GI50 in [1] was 1.47 µM; in [2], 0.802 µM; in experiment [3] it was 2.21 µM; in experiment [4], 0.221 µM; in [5], 0.323 µM; in [6], 0.323 µM. For the same molecule, the GI50 in experiment [7] was 0.421 µM; in experiment [8], 0.235 µM; in experiment [9], 2.23 µM; in [10] it was 1.96 µM. The TGI in [1] worked out at 3.09 µM; in experiment [2] it was 3.17 µM; in experiment [3], 5.24 µM; in experiment [4], 0.448 µM; in experiment [5] it was 1.21 µM; in [6], 1.11 µM. The TGI worked out at 1.29 µM in experiment [7], 0.594 µM in experiment [8] and 5.09 µM in experiment [9].

Turning to `O=c1[nH]cnc2nc(-c3ccc(N(CCCl)CCCl)cc3)[nH]c12`, the GI50 in experiment [1] was 22.2 µM; in experiment [2], 84.8 µM; in experiment [3], 11 µM; in experiment [4], 4.76 µM; in [5] it was 12.6 µM; in experiment [6], more than 100 µM. The GI50 in experiment [7] was more than 100 µM; in [8], more than 100 µM; in [9] it was more than 100 µM; in experiment [10] it was 10.4 µM. Moreover, the TGI was 70.3 µM in [1]; more than 100 µM in [2]; more than 100 µM in experiment [3]; more than 100 µM in experiment [4]; more than 100 µM in experiment [5]; more than 100 µM in experiment [6]. Also, the TGI in experiment [7] was more than 100 µM; in [8] it was more than 100 µM; in experiment [9], more than 100 µM; in [10] it was 38.3 µM.

Consider `O=C(O)c1cc2c(c3ccsc13)-c1ccccc1CC2`, for which the GI50 in experiment [1] was 19.2 µM; in [2], 41.1 µM; in experiment [3], 50.4 µM; in [4], 24.2 µM; in [5], 34.9 µM; in [6], 37.5 µM. The GI50 in experiment [7] is 42 µM; in [8], 43.4 µM; in experiment [9], 85.5 µM; in experiment [10], 29.3 µM. The TGI in experiment [1] was 61.8 µM; in [2] it was more than 100 µM; in [3], more than 100 µM; in [4], 69.6 µM; in [5], more than 100 µM; in [6], more than 100 µM. The TGI was more than 100 µM in [7], more than 100 µM in [8], more than 100 µM in experiment [9] and 79.5 µM in experiment [10].

With `C[C@H]1CC2=CC(=O)CC[C@]2(C)[C@H]2CC[C@@]3(C)[C@@H](CC[C@]3(C)O)[C@H]12`, the GI50 is 28.2 µM in experiment [1]; 24.7 µM in [2]; 11.3 µM in experiment [3]; 43.8 µM in [4]; 31.2 µM in experiment [5]; 12.9 µM in experiment [6]. The GI50 in experiment [7] was 24.9 µM; in experiment [8] it was 7.58 µM; in [9] it was 29.3 µM; in experiment [10], 20.6 µM. For the same molecule, the TGI in experiment [1] was more than 82.8 µM; in experiment [2] it was 71.9 µM; in experiment [3], more than 100 µM; in experiment [4], more than 100 µM; in experiment [5] it was more than 95.2 µM; in experiment [6] it was 36.8 µM. Besides, the TGI in experiment [7] is more than 76.7 µM; in experiment [8], 38 µM; in experiment [9], more than 85.2 µM; in experiment [10] it was more than 78.5 µM.

As to `Cc1nn2c(/C=C3\C(=O)Nc4ccccc43)c(C)nc2s1`, the GI50 was 31.3 µM in experiment [1]; more than 100 µM in experiment [2]; 74.1 µM in [3]; 13.7 µM in experiment [4]; 15.7 µM in [5]; 21 µM in [6]. Also, the GI50 in experiment [7] is 7.46 µM; in [8], 49 µM; in [9], more than 100 µM; in experiment [10], 70 µM. Besides, the TGI in [1], in experiment [2], in experiment [3], in [4], in experiment [5] and in experiment [6] was more than 100 µM in each case. Besides, the TGI in experiment [7], in experiment [8], in experiment [9] and in [10] was more than 100 µM in each case.

In the case of `O=C(Nc1ccccc1C(=O)Nc1nccs1)c1ccccc1`, the TGI in experiment [1], in [2], in experiment [3], in experiment [4], in experiment [5] and in [6] was more than 100 µM throughout. The TGI in [7], in experiment [8], in experiment [9] and in [10] was more than 100 µM in each case.

Take `C=C1C[C@@H]2[C@H](CC[C@]3(C)C(=O)CC[C@@H]23)[C@@]2(C)C=CC(=O)C=C12`: the GI50 is more than 50.8 µM in experiment [1]; 28.9 µM in [2]; more than 59.2 µM in [3]; 18.1 µM in [4]; 14.7 µM in experiment [5]; 26 µM in experiment [6]. Besides, the GI50 in [7] is 14.6 µM; in experiment [8], 19.7 µM; in experiment [9], 42.5 µM; in experiment [10], 22 µM. Further, the TGI in [1] was more than 90.3 µM; in experiment [2] it was more than 100 µM; in experiment [3], more than 100 µM; in experiment [4], 33.5 µM; in experiment [5] it was 29.9 µM; in experiment [6], more than 63.4 µM. Also, the TGI in experiment [7] was more than 62.2 µM; in experiment [8], more than 56.6 µM; in experiment [9] it was more than 100 µM; in experiment [10] it was more than 56.5 µM.

For `CS(=O)(=O)Nc1cc(-c2ccc3ncnc(Nc4cccc(Cl)c4F)c3c2)cnc1Cl`, the GI50 is 1.68 µM in [1]; 1.84 µM in [2]; 1.44 µM in experiment [3]; 1.66 µM in experiment [4]; 4.02 µM in experiment [5]; 3.19 µM in experiment [6]. Also, the GI50 in experiment [7] is 0.624 µM; in experiment [8], 2.21 µM; in experiment [9] it was 1.59 µM; in [10] it was 1.24 µM. Further, the TGI in experiment [1] stood at 4.1 µM; in [2], 7.65 µM; in experiment [3], 6.27 µM; in experiment [4] it was 5.01 µM; in [5] it was 19.9 µM; in [6], 40.2 µM. Besides, the TGI stood at 20.1 µM in experiment [7], 6.11 µM in experiment [8], 9.27 µM in experiment [9] and 4.3 µM in [10].

On to `O=[N+]([O-])c1ccc(NC(=S)N/N=C(\c2ccccc2)c2ccccn2)cc1`, for which the GI50 was 1.41 µM in experiment [1]; 1.87 µM in experiment [3]; 2.1 µM in experiment [4]; 1.59 µM in [6]; 0.0393 µM in [7]; 1.2 µM in [8]. The GI50 in experiment [9] was 1.38 µM. For the same molecule, the TGI in experiment [1] is 2.71 µM and 3.21 µM; in experiment [2] it was 3.01 µM; in [3], 3.45 µM and 2.19 µM; in [4], 4.26 µM and 2.83 µM; in experiment [5], 3.21 µM; in experiment [6], 4.32 µM and > 20.4 µM. In addition, the TGI in experiment [7] was 1.55 µM and 2.75 µM; in [8], 5.6 µM and > 27 µM; in experiment [9], 2.9 µM and 2.69 µM; in experiment [10], 2.79 µM.

For `COc1cc(/C=C/c2cc(/C=C/c3ccc(O)c(OC)c3)[nH]c(=O)n2)ccc1O`, the GI50 in experiment [1] is 3.11 µM; in [2], 2.06 µM; in [3] it was 3.89 µM; in experiment [4] it was 3.55 µM; in experiment [5], 2.48 µM; in [6], 3.74 µM. Also, the GI50 is 2.96 µM in experiment [7], 2.1 µM in [8], 3.05 µM in experiment [9] and 3.71 µM in experiment [10]. The TGI is 25.2 µM in experiment [1]; 8.08 µM in experiment [2]; 72.8 µM in experiment [3]; 14.3 µM in experiment [4]; 12.4 µM in experiment [5]; 12.1 µM in experiment [6]. The TGI in experiment [7] was 11.4 µM; in [8], 5.68 µM; in experiment [9], 13.1 µM; in experiment [10], 58.6 µM.

Turning to `N#C/C(=C\c1cccnc1)c1nc2ccccc2o1`, the GI50 in experiment [1] is 66.4 µM; in experiment [2], more than 100 µM; in experiment [3], more than 100 µM; in experiment [4], more than 100 µM; in [5], more than 100 µM; in experiment [6], more than 100 µM. In addition, the GI50 in experiment [7] is more than 100 µM; in experiment [8], more than 100 µM; in experiment [9], more than 100 µM; in experiment [10] it was 43.1 µM. The TGI in experiment [1], in experiment [2], in experiment [3], in experiment [4], in experiment [5] and in [6] was more than 100 µM in each case. Further, the TGI in [7], in [8], in experiment [9] and in [10] was more than 100 µM each time.

Regarding `CN(C)CCNc1c2c(c(NCCN(C)C)c3c(CO)c[nH]c13)C(=O)c1ccccc1C2=O`, the GI50 was 18.1 µM in [1]; 8.23 µM in [2]; 3.05 µM in experiment [3]; 1.43 µM in experiment [4]; 0.721 µM in [5]; 29.9 µM in experiment [6]. In addition, the GI50 is 1.97 µM in experiment [7], 2.17 µM in experiment [8], 5.01 µM in experiment [9] and 3.31 µM in experiment [10]. In addition, the TGI is 34.7 µM in experiment [1]; 23.5 µM in experiment [2]; 9.34 µM in experiment [3]; 5.46 µM in experiment [4]; 10.9 µM in experiment [5]; more than 100 µM in [6]. Besides, the TGI is more than 34.1 µM in experiment [7], 12.8 µM in experiment [8], 10.6 µM in experiment [9] and 23.2 µM in experiment [10].

In the case of `O=C(Nc1ccc(-c2ccnc(Nc3ccc(N4CCOCC4)cc3)n2)cc1)C1CCCN1` (stereo unspecified), the GI50 is 6.4 µM in experiment [1]; 8.76 µM in experiment [2]; 12.5 µM in [3]; 11.3 µM in experiment [4]; 1.43 µM in experiment [5]; 4.5 µM in [6]. Also, the GI50 in [7] was 4.51 µM; in experiment [8], 4.61 µM; in experiment [9], 8.95 µM; in [10], 4.06 µM. For the same molecule, the TGI in [1] stood at 17.9 µM; in [2], 23 µM; in experiment [3] it was 33.7 µM; in [4], 25 µM; in experiment [5] it was 18.5 µM; in experiment [6], 25.5 µM. The TGI turned out to be 21.4 µM in experiment [7], 24.7 µM in experiment [8], 22.3 µM in [9] and 24.2 µM in experiment [10].
